Among the data in patent US20230150970A1, “AMINOPYRIMIDINE DERIVATIVES AND THEIR USE AS ARYL HYDROCARBON RECEPTOR MODULATORS” (DONG-A ST CO., LTD., priority 2020, published 2023) are IC50 values, retold here.

The assay deals with T1, AhR (Homo sapiens, UniProt P35869).
T1 sequence (P35869 11-848): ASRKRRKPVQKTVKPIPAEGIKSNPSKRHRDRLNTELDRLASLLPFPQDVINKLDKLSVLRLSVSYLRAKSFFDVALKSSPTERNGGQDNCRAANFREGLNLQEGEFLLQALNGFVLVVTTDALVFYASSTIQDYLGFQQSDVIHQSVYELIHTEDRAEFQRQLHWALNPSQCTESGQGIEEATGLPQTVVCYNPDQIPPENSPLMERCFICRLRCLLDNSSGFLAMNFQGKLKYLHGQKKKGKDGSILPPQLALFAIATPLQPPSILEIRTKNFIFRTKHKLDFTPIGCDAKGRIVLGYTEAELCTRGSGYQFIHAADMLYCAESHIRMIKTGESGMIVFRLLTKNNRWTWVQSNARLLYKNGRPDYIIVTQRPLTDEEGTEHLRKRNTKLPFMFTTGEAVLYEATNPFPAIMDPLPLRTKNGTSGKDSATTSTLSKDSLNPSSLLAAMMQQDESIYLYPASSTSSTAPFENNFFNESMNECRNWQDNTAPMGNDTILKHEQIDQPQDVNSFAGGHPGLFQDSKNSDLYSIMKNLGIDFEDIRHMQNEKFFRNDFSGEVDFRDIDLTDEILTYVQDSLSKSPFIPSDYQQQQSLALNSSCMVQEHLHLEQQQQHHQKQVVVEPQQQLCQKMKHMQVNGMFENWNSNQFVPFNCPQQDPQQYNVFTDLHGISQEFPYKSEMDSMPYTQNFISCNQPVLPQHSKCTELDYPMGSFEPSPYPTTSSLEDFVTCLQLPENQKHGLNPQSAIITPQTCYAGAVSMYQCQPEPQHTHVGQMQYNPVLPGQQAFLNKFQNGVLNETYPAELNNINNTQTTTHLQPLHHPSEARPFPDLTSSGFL
Kind of assay: In Vitro Assay 1: XRE-luciferase reporter assay, antagonism in human cell line (HepG2). The note with it: Assay 1: AhR-Luc Human Antagonism (IC50, nM), values marked *: kynurenine 50 μM, 6 hours. For orientation: A reporter such as luciferase makes a cellular process visible.

By IC50 is commonly meant the concentration needed to halve the response being measured. Read a high IC50 as weaker potency in that assay.

Description: In Vitro XRE-Luciferase Reporter Assay (In Vitro Assay 1, 2, 3) AhR activation leads the induction of target gene expression such as CYP1A1 and CYPIB1 by AhR binding to AhR-responsive DNA elements also known as xenobiotics responsive elements (XREs). The assay for measuring AhR activity herein is the luciferase assay using cell lines transfected with luciferase reporter plasmid containing XREs at the upstream of the reporter gene. Cells transfected with XRE-luciferase reporter (XRE-Luc), plasmid drive luciferase activity reflecting activation and inhibition of AhR in the cells. […] Kynurenine (an endogenous AhR agonist), was used to stimulate cells to test antagonistic properties of the compounds. The half-maximal inhibitory concentration (IC50), or half-maximal effective concentration (EC50), value was calculated using nonlinear regression (four parameters), with Prism8.0 software (GraphPad).
In Vitro Assay 1: Antagonism in Human Cell Line
HepG2 (human hepatoma cell line) cell line with a XRE-luciferase reporter either transiently or stably (Invivogen) were plated in complete medium and incubated at 37° C. in a CO2 incubator. After 24 hours, cells were treated with kynurenine (50* or 200 μM) alone (negative control) or with test compounds for 6 hours. Luciferase activity was measured with a commercial kit such as the Promega Luciferase kit or Invivogen Luciferase kit. Relative luciferase activity (Firefly/Nano-Luc) was used to calculate IC50 values. […] (IC50 values are grouped as A, B, C and D, whereby A: IC50<0.01 μM; B: 0.01<IC50<0.1 μM; C: 0.1<IC50<1.0 μM; D: IC50>1.0 μM)

As for `Clc1ccc(-c2cc(NCc3ccncc3)nc(-c3cccnc3)n2)cc1` [Example 33, 6-(4-chlorophenyl)-2-(pyridin-3-yl)-N-(pyridin-4-ylmethyl)pyrimidin-4-amine], the IC50 fell in the range of 100 to 1000 nM.

For the compound `O[C@H]1CC[C@H](Nc2cc(-c3ccc(Cl)cc3)nc(-c3cccnc3)n2)CC1` [Example 34, trans-4-((6-(4-chlorophenyl)-2-(pyridin-3-yl)pyrimidin-4-yl)amino)cyclohexan-1-ol], the IC50 was 10 to 100 nM.

Regarding `OCC1CCCCN1c1cc(-c2ccc(Cl)cc2)nc(-c2cccnc2)n1` (centres unmarked) [Example 36, (1-(6-(4-chlorophenyl)-2-(pyridin-3-yl)pyrimidin-4-yl)piperidin-2-yl)methanol], the IC50 is 10 to 100 nM.

Take `OCCC1CCCCN1c1cc(-c2ccc(Cl)cc2)nc(-c2cccnc2)n1` (centres unmarked) [Example 37, 2-(1-(6-(4-chlorophenyl)-2-(pyridin-3-yl)pyrimidin-4-yl)piperidin-2-yl)ethan-1-ol]: the IC50 is > 1000 nM.

For `O[C@@H]1CCCN(c2cc(-c3ccc(Cl)cc3)nc(-c3cccnc3)n2)C1` [Example 38, (R)-1-(6-(4-chlorophenyl)-2-(pyridin-3-yl)pyrimidin-4-yl)piperidin-3-ol], the IC50 is < 10 nM.

In the case of `OC1CCCN(c2cc(-c3ccc(Cl)cc3)nc(-c3cccnc3)n2)C1` (centres unmarked) [Example 39, 1-(6-(4-chlorophenyl)-2-(pyridin-3-yl)pyrimidin-4-yl)piperidin-3-ol], the IC50 lay within 10 to 100 nM.

`OCC1CCCN(c2cc(-c3ccc(Cl)cc3)nc(-c3cccnc3)n2)C1` (centres unmarked) [Example 40, (1-(6-(4-chlorophenyl)-2-(pyridin-3-yl)pyrimidin-4-yl)piperidin-3-yl)methanol]: the IC50 lay within 10 to 100 nM.

Take `OC1CCN(c2cc(-c3ccc(Cl)cc3)nc(-c3cccnc3)n2)CC1` [Example 41, 1-(6-(4-chlorophenyl)-2-(pyridin-3-yl)pyrimidin-4-yl)piperidin-4-ol]: the IC50 is < 10 nM.

With `OCCCC1CCN(c2cc(-c3ccc(Cl)cc3)nc(-c3cccnc3)n2)CC1` [Example 44, 3-(1-(6-(4-chlorophenyl)-2-(pyridin-3-yl)pyrimidin-4-yl)piperidin-4-yl)propan-1-ol], the IC50 is < 10 nM.

`COC1CCN(c2cc(-c3ccc(Cl)cc3)nc(-c3cccnc3)n2)CC1` [Example 45, 4-(4-chlorophenyl)-6-(4-methoxypiperidin-1-yl)-2-(pyridin-3-yl)pyrimidine]: the IC50 was in the range of 10 to 100 nM.

For the compound `Clc1ccc(-c2cc(N3CCCCC3)nc(-c3cccnc3)n2)cc1` [Example 46, 4-(4-chlorophenyl)-6-(piperidin-1-yl)-2-(pyridin-3-yl)pyrimidine], the IC50 was 100 to 1000 nM.

Consider `CC1CCCCN1c1cc(-c2ccc(Cl)cc2)nc(-c2cccnc2)n1` (centres unmarked) [Example 47, 4-(4-chlorophenyl)-6-(2-methylpiperidin-1-yl)-2-(pyridin-3-yl)pyrimidine], for which the IC50 is > 1000 nM.

Turning to `CC1CCCN(c2cc(-c3ccc(Cl)cc3)nc(-c3cccnc3)n2)C1` (centres unmarked) [Example 48, 4-(4-chlorophenyl)-6-(3-methylpiperidin-1-yl)-2-(pyridin-3-yl)pyrimidine], the half-maximal inhibitory concentration (IC50) is > 1000 nM.

For `CC1CCCC(C)N1c1cc(-c2ccc(Cl)cc2)nc(-c2cccnc2)n1` (centres unmarked) [Example 49, 4-(4-chlorophenyl)-6-(2,6-dimethylpiperidin-1-yl)-2-(pyridin-3-yl)pyrimidine], the IC50 is > 1000 nM.

Regarding `CC1CC(C)CN(c2cc(-c3ccc(Cl)cc3)nc(-c3cccnc3)n2)C1` (centres unmarked) [Example 50, 4-(4-chlorophenyl)-6-(3,5-dimethylpiperidin-1-yl)-2-(pyridin-3-yl)pyrimidine], the IC50 is > 1000 nM.

In the case of `FC1(F)CCCN(c2cc(-c3ccc(Cl)cc3)nc(-c3cccnc3)n2)C1` [Example 51, 4-(4-chlorophenyl)-6-(3,3-difluoropiperidin-1-yl)-2-(pyridin-3-yl)pyrimidine], the IC50 lay within 100 to 1000 nM.

As to `FC(F)(F)C1CCCN(c2cc(-c3ccc(Cl)cc3)nc(-c3cccnc3)n2)C1` (centres unmarked) [Example 52, 4-(4-chlorophenyl)-2-(pyridin-3-yl)-6-(3-(trifluoromethyl)piperidin-1-yl)pyrimidine], the concentration for half-maximal inhibition (IC50) lay within 100 to 1000 nM.
